Patent US20220380371A1, “MLL1 INHIBITORS AND ANTI-CANCER AGENTS” (NOVARTIS AG, priority 2019, published 2022)
pIC50: −log10 of the molar value.

How the values were obtained:
[1] = target: wild type MLL1 four-member complex (MLL1-4C) (Homo sapiens, UniProt Q03164); assay: MLL1 LC-MS Assay; assay type: biochemical; conditions: read-out: LCMS
In short: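 Compound pre-incubated 20 min with MLL1-4C and SAM, then H3[1-21]-biotin (H3K4me0) substrate added; final 30 nM enzyme, 2.5 μM SAM, 10 μM peptide in Tris pH 8.0 with MgCl2, DTT, Tween 20, BSA. After 120 min at rt, TFA-quenched SAH quantified by LC-MS/MS with d4-SAH; IC50 from dose-response fit.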

MV4-11 cells = assay: MV4-11 6-Day Cell Growth CTG (CellTiter-Glo) Assay; assay type: cell-based; conditions: Homo sapiens, MV4-11, 144 h, MV4-11 cell growth CellTiter-Glo, 6 days
In short: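 MV4-11 AML cells (RPMI 1640, 10% FBS) seeded at 300 cells/well and exposed for 6 days at 37 °C to a 12-point, 1:3 compound series starting at 50 μM final. Viable cells read by CellTiter-Glo luminescence; percent inhibition versus DMSO-only wells fitted to dose-response curves for IC50.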

[2] = target: wild type MLL1 five-member complex (MLL1-5C) (Homo sapiens, UniProt Q03164); assay: MLL1 Flashplate Assay; assay type: biochemical; conditions: read-out: MLL1 flash plate
Description: MLL1 Flashplate Assay To assess the compound potency in MLL1 Flashplate assay, compounds were serially diluted 3-fold in DMSO to obtain a total of twelve concentrations. Then the test compounds at each concentration (250 nL of each) were transferred by Mosquito into Corning #3675 384-well plate. Solutions (15 μL) of 4.2 nM wild type MLL1 five-member complex (MLL1-5C) in the assay buffer (20 mM Tris-HCl, pH 8.0, 0.01% Tween 20, 1 mM DTT, 0.01% BSA) were added to the wells. A 10 μL solution of 2.5 μM of the peptide substrate H3K4me0 (histone H3[1-21]-Biotin) and 1.25 μM ^3H-SAM in the reaction buffer was then added to initiate each reaction. The final components in the reaction solution include 2.5 nM MLL1-5C, 0.5 μM ^3H-SAM, and 1 μM H3K4me0 with varying concentration of the compounds. A positive control consisted of 2.5 nM MLL1-5C, 0.5 μM ^3H-SAM, and 1 μM substrate in the absence of the test compound, and a negative control consisted of 0.5 μM ^3H-SAM, and 1 μM substrate only. Each reaction was incubated at rt for 90 min, then stopped by addition of 5 μL per of quench solution (0.5 mM SAM in assay buffer). 25 μL of each reaction solution was transferred to FlashPlate streptavidin 384-well microplate (PerkinElmer). After at least 1 h incubation at rt, the wells were washed three times with 0.1% Tween-20 in dH2O using the BioTek plate washer. The plates were then read in MicroBeta (PerkinElmer). The radioactive readouts were then normalized based on the values coming from the positive and negative controls to give percent enzyme activities. The data were then fit to a dose response equation using the program Helios to get the IC50 values of the test compounds.

H3K4me3 in MV4-11 cells = assay: MV4-11 H3K4me3 Cellular ELISA Assay; assay type: cell-based; conditions: Homo sapiens, MV4-11, 48 h
In short: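 MV4-11 cells were treated for 48 h with 12-point 1:3 compound dilutions (from 10 mM stock), then histones were acid-extracted with 0.5M HCl and neutralized. H3K4me3 and total H3 were measured by HRP chemiluminescent ELISA, and inhibition versus DMSO after H3 normalization was curve-fitted for IC50.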

SMILES	pIC50 [1]	pIC50 (MV4-11 cells)	pIC50 [2]	pIC50 (H3K4me3 in MV4-11 cells)
Nc1ncnc2c1ncn2Cc1c(N2CCC(N)(c3ccccn3)C2)ccc(F)c1C(F)(F)F (stereo not shown) [Example 22]	7.00 to 7.30	> 5.70	7.00 to 7.22	> 5.72
Nc1ncnc2c1ncn2Cc1c(N2CC[C@](N)(c3ccccn3)C2)ccc(F)c1C(F)(F)F [Example 23]	> 7.30	> 5.70	> 7.22	> 5.72
Nc1ncnc2c1ncn2Cc1c(Br)cc2c(c1N1CCC(N)(C(=O)NC3CC3)C1)OCO2 (stereo not shown) [Example 31]	> 7.30	> 5.70	> 7.22	> 5.72
COC[C@@]1(N)CCN(c2cc(Cl)cc(Br)c2Cn2cnc3c(N)ncnc32)C1 [Example 32, (R)-9-(2-(3-amino-3-(methoxymethyl)pyrrolidin-1-yl)-6-bromo-4-chlorobenzyl)-9H-purin-6-amine]	< 7.00	< 5.52	7.00 to 7.22	< 5.52
Nc1ncnc2c1ncn2Cc1c(Br)cc(Cl)c(Cl)c1N1CC[C@](N)(C(=O)NC2CC2)C1 [Example 43]	7.00 to 7.30	< 5.52	> 7.22	< 5.52
Nc1ncnc2c1ncn2Cc1c(Br)c(Cl)c(Cl)c(Cl)c1N1CCC(N)(C(=O)NC2CC2)C1 (stereo not shown) [Example 44]	7.00 to 7.30	< 5.52	> 7.22	> 5.72
CN(C)Cc1c(F)ccc(N2CC[C@](N)(C(=O)NC3CC3)C2)c1Cn1cnc2c(N)ncnc21 [Example 45, (R)-3-amino-1-(2-((6-amino-9H-purin-9-yl)methyl)-3-((dimethylamino)methyl)-4-fluorophenyl)-N-cyclopropylpyrrolidine-3-carboxamide]	7.00 to 7.30	> 5.70	< 7.00	> 5.72
Nc1ncnc2c1ncn2Cc1c(N2CC[C@](N)(C(=O)N[C@H]3C[C@@H]3c3ccccc3)C2)ccc(F)c1CN1CCOCC1 [Example 51]	> 7.30	> 5.70	> 7.22	> 5.72
Nc1ncnc2c1ncn2Cc1c(N2CC[C@](N)(C(=O)NC3CC3)C2)ccc(F)c1CN1CC(F)(F)C1 [Example 52]	7.00 to 7.30	> 5.70	7.00 to 7.22	> 5.72
Nc1ncnc2c1ncn2Cc1c(N2CC[C@](N)(C(=O)NC3CC3)C2)ccc(C(F)(F)F)c1CN1CCC1 [Example 62]	> 7.30	> 5.70	> 7.22	> 5.72
Nc1ncnc2c1ncn2Cc1c(N2CC[C@](N)(C(=O)NC3CC3)C2)ccc(F)c1CN1CCOCC1 [Example 65]	> 7.30	> 5.70	< 7.00	> 5.72
Nc1ncnc2c1ncn2Cc1c(N2CC[C@](N)(C(=O)NC3CC3)C2)ccc(F)c1CN1CCC1 [Example 70]	7.00 to 7.30	> 5.70	< 7.00	> 5.72
Nc1ncnc2c1ncn2Cc1c(-c2cccc(C3CCCCC3)c2)cc(Cl)cc1N1CC[C@](N)(c2nn[nH]n2)C1 [Example 84]	7.00 to 7.30	> 5.70	> 7.22	> 5.72
Nc1ncnc2c1ncn2Cc1c(N2CC[C@](N)(c3nc[nH]n3)C2)ccc(Cl)c1Cl [Example 85]	> 7.30	> 5.70	> 7.22	> 5.72
Nc1ncnc2c1ncn2Cc1c(N2CC[C@](N)(C(=O)NC3CC3)C2)ccc(Cl)c1COC(F)F [Example 86]	> 7.30	> 5.70	> 7.22	> 5.72
CN(C)Cc1c(Cl)c(Cl)cc(N2CC[C@](N)(C(=O)NC3CC3)C2)c1Cn1cnc2c(N)ncnc21 [Example 88, (R)-3-amino-1-(2-((6-amino-9H-purin-9-yl)methyl)-4,5-dichloro-3-((dimethylamino)methyl)phenyl)-N-cyclopropylpyrrolidine-3-carboxamide]	> 7.30	> 5.70	> 7.22	> 5.72
CCc1cc(-c2cccs2)cc(N2CC[C@](N)(C(=O)NC3CC3)C2)c1Cn1cnc2c(N)ncnc21 [Example 93]	> 7.30	> 5.70	> 7.22	> 5.72
CCc1cc(-c2cnn(C)c2)cc(N2CC[C@](N)(C(=O)NC3CC3)C2)c1Cn1cnc2c(N)ncnc21 [Example 96]	> 7.30	< 5.52	> 7.22	5.52 to 5.72
CCc1cc(-c2ccccn2)cc(N2CC[C@](N)(C(=O)NC3CC3)C2)c1Cn1cnc2c(N)ncnc21 [Example 99, (R)-3-amino-1-(2-((6-amino-9H-purin-9-yl)methyl)-3-ethyl-5-(pyridin-2-yl)phenyl)-N-cyclopropylpyrrolidine-3-carboxamide]	> 7.30	> 5.70	> 7.22	> 5.72
CCc1c(C#N)c(Cl)cc(N2CC[C@](N)(C(=O)NC3CC3)C2)c1Cn1cnc2c(N)ncnc21 [Example 101, (R)-3-amino-1-(2-((6-amino-9H-purin-9-yl)methyl)-5-chloro-4-cyano-3-ethylphenyl)-N-cyclopropylpyrrolidine-3-carboxamide]	> 7.30	5.52 to 5.70	> 7.22	> 5.72
Nc1ncnc2c1ncn2Cc1c(N2CC[C@](N)(C(=O)NC3CC3)C2)cc(Cl)c(F)c1CN1CCOCC1 [Example 102, (R)-3-amino-1-(2-((6-amino-9H-purin-9-yl)methyl)-5-chloro-4-fluoro-3-(morpholinomethyl)phenyl)-N-cyclopropylpyrrolidine-3-carboxamide]	> 7.30	> 5.70	> 7.22	> 5.72
Nc1ncnc2c1ncn2Cc1c(N2CC[C@@](N)(CO)C2)ccc2ccccc12 [Example 106]	> 7.30	> 5.70	> 7.22	> 5.72
Nc1ncnc2c1ncn2Cc1c(Br)c(Cl)c2c(c1N1CC[C@](N)(C(=O)NC3CC3)C1)OCC2 [Example 110]	> 7.30	> 5.70	> 7.22	> 5.72
Nc1ncnc2c1ncn2Cc1c(N2CC[C@](N)(C(=O)NC3CC3)C2)ccc2ccoc12 [Example 112]	7.00 to 7.30	> 5.70	> 7.22	> 5.72
Nc1ncnc2c1ncn2Cc1c(N2CC[C@](N)(C(=O)NC3CC3)C2)ccc(F)c1C(F)(F)F [Example 116, (R)-3-amino-1-(2-((6-amino-9H-purin-9-yl)methyl)-4-fluoro-3-(trifluoromethyl)phenyl)-N-cyclopropylpyrrolidine-3-carboxamide]	> 7.30	> 5.70	> 7.22	> 5.72
CS[C@H]1C[C@H](NC(=O)[C@@]2(N)CCN(c3ccc(F)c(C(F)(F)F)c3Cn3cnc4c(N)ncnc43)C2)C1 [Example 117]	> 7.30	> 5.70	> 7.22	> 5.72
Nc1ncnc2c1ncn2Cc1c(N2CC[C@](N)(C(=O)NCc3cccnn3)C2)ccc(F)c1C(F)(F)F [Example 118]	7.00 to 7.30	> 5.70	> 7.22	> 5.72
N#CCC1CCN(C(=O)[C@@]2(N)CCN(c3ccc(F)c(C(F)(F)F)c3Cn3cnc4c(N)ncnc43)C2)CC1 [Example 119]	7.00 to 7.30	> 5.70	> 7.22	> 5.72
